Results from patent US10590140B2, “Tetrahydropyrimidodiazepine and dihydropyridodiazepine compounds for treating pain and pain related conditions” (ESTEVE PHARMACEUTICALS, S.A., priority 2016, dated 2020).

Molecular target: human α2δ-1 subunit of Cav2.2 calcium channel (Homo sapiens (Human), UniProt P54289)
Test: Binding assay to human α2δ-1 subunit of Cav2.2 calcium channel ([3H]-Gabapentin)
Settings: binding to α2δ-1, [3H]-Gabapentin; read-out: Ki (nM) α2δ-1
How it was run: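 [3H]-gabapentin binding, 60 min at 27° C; nonspecific binding defined with 10 μM pregabalin. Terminated by filtration on PEI-presoaked GF/C filters, ice-cold 50 mM Tris-HCl pH 7.4 washes, then scintillation counting.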

Sequence of human α2δ-1 subunit of Cav2.2 calcium channel (P54289 25-1103): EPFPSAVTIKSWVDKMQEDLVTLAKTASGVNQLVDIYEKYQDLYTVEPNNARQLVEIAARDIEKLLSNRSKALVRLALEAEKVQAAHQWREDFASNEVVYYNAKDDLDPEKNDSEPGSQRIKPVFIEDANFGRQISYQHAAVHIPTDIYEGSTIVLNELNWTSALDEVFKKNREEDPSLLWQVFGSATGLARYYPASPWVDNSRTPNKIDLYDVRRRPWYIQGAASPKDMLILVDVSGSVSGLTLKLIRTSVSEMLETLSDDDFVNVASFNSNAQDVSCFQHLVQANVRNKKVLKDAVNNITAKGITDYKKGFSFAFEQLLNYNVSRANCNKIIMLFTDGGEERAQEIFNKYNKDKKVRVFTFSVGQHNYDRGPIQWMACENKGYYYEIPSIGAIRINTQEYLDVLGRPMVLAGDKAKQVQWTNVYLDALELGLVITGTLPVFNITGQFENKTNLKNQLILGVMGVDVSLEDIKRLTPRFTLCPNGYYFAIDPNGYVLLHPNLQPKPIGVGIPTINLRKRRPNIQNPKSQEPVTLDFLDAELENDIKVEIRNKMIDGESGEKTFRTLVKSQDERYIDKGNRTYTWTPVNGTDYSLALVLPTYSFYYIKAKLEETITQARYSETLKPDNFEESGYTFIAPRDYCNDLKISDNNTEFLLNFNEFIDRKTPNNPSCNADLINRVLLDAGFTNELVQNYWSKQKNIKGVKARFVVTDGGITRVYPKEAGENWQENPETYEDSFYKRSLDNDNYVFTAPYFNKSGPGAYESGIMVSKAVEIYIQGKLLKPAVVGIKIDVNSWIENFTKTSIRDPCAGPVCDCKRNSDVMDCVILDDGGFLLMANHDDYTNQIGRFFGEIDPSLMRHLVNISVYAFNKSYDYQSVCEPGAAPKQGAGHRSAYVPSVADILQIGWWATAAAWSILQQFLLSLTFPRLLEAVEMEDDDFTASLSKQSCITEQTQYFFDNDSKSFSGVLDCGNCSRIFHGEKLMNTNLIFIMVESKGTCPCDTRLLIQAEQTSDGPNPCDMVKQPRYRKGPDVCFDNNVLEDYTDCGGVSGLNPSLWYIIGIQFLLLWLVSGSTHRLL

SMILES | Ki
CSc1ncc2c(n1)N(C)CCN(c1cccc(CO[C@H](CCN(C)C(=O)OC(C)(C)C)c3cccs3)c1)C2=O [Example 16, tert-butyl (R)-methyl(3-((3-(9-methyl-2-(methylthio)-5-oxo-5,7,8,9-tetrahydro-6H-pyrimido[4,5-e][1,4]diazepin-6-yl)benzyl)oxy)-3-(thiophen-2-yl)propyl) carbamate] | > 3000 nM
CSc1ncc2c(n1)N(C)CCN(c1ccc(O[Si](C)(C)C(C)(C)C)cc1)C2=O [Example 38, 6-(4-((tert-butyldimethyl-silyl)oxy)phenyl)-9-methyl-2-(methylthio)-6,7,8,9-tetrahydro-5H-pyrimido[4,5-e][1,4]diazepin-5-one] | > 3000 nM
CNc1ncc2c(n1)N(C)CCN(c1cccc(CO[C@H](CCN(C)C(=O)OC(C)(C)C)c3ccccc3)c1)C2=O [Example 132, tert-butyl (R)-methyl(3-((3-(9-methyl-2-(methylamino)-5-oxo-5,7,8,9-tetrahydro-6H-pyrimido[4,5-e][1,4]diazepin-6-yl)benzyl)oxy)-3-phenylpropyl)carbamate] | > 3000 nM
CNCCC(Oc1ccc(N2CCN(C)c3ncncc3C2=O)cc1)c1ccccc1 (centres unmarked) [Example 361, 9-methyl-6-(4-(3-(methylamino)-1-phenylpropoxy)phenyl)-6,7,8,9-tetrahydro-5H-pyrimido[4,5-e][1,4]diazepin-5-one] | > 3000 nM
CCNc1ncc2c(n1)N(C)CCN(Cc1ccc(OC(CN(C)C(=O)OC(C)(C)C)c3ccccc3)cc1)C2=O (centres unmarked) [Example 136, tert-butyl (2-(4-((2-(ethylamino)-9-methyl-5-oxo-5,7,8,9-tetrahydro-6H-pyrimido[4,5-e][1,4]diazepin-6-yl)methyl)phenoxy)-2-phenylethyl)(methyl) carbamate] | > 3000 nM
Cc1cc2c(cn1)C(=O)N(c1cccc(COC(CCN(C)C(=O)OC(C)(C)C)c3ccccc3)c1)CCN2C (centres unmarked) [Example 303, tert-butyl (3-((3-(1,8-dimethyl-5-oxo-1,2,3,5-tetrahydro-4H-pyrido[4,3-e][1,4]diazepin-4-yl)benzyl)oxy)-3-phenylpropyl)(methyl) carbamate] | > 3000 nM
CCNc1ncc2c(n1)N(C)CCN(c1cccc(-c3nnc(CN(C)C(=O)OC(C)(C)C)o3)c1)C2=O [Example 124, tert-butyl ((5-(3-(2-(ethylamino)-9-methyl-5-oxo-5,7,8,9-tetrahydro-6H-pyrimido[4,5-e][1,4]diazepin-6-yl)phenyl)-1,3,4-oxadiazol-2-yl)methyl)(methyl) carbamate] | > 3000 nM
CCNc1ncc2c(n1)N(C)CCN(c1cccc(CNC)c1)C2=O [Example 174, 2-(ethylamino)-9-methyl-6-(3-((methylamino)methyl)phenyl)-6,7,8,9-tetrahydro-5H-pyrimido[4,5-e][1,4]diazepin-5-one] | 500 to 3000 nM
CCNc1ncc2c(n1)N(C)CCN(c1cccc(C3CCN(C(=O)OC(C)(C)C)CC3)c1)C2=O [Example 234, tert-Butyl 4-(3-(2-(ethylamino)-9-methyl-5-oxo-5,7,8,9-tetrahydro-6H-pyrimido[4,5-e][1,4]diazepin-6-yl)phenyl)piperidine-1-carboxylate] | > 3000 nM
CCNc1ncc2c(n1)N(C)CCN(c1cccc(-n3cc(CN(C)C(=O)OC(C)(C)C)cn3)c1)C2=O [Example 122, tert-butyl ((1-(3-(2-(ethylamino)-9-methyl-5-oxo-5,7,8,9-tetrahydro-6H-pyrimido[4,5-e][1,4]diazepin-6-yl)phenyl)-1H-pyrazol-4-yl)methyl)(methyl) carbamate] | > 3000 nM
CCNc1ncc2c(n1)N(C)CCN(c1cccc(CCN3CCC(c4ccccc4)(N(C)C)CC3)c1)C2=O [Example 438, 6-(3-(2-(4-(dimethylamino)-4-phenylpiperidin-1-yl)ethyl)phenyl)-2-(ethylamino)-9-methyl-6,7,8,9-tetrahydro-5H-pyrimido[4,5-e][1,4]diazepin-5-one] | 500 to 3000 nM
CCNc1ncc2c(n1)N(C)CCN(c1cccc(CCCNC)c1)C2=O [Example 171, 2-(ethylamino)-9-methyl-6-(3-(3-(methylamino)propyl)phenyl)-6,7,8,9-tetrahydro-5H-pyrimido[4,5-e][1,4]diazepin-5-one] | 100 to 500 nM
CCNc1ncc2c(n1)N(C)CCN(c1cccc(C(=O)N3CCC(c4ccccc4)(N(C)C)CC3)c1)C2=O [Example 314, 6-(3-(4-(dimethylamino)-4-phenylpiperidine-1-carbonyl)phenyl)-2-(ethylamino)-9-methyl-6,7,8,9-tetrahydro-5H-pyrimido[4,5-e][1,4]diazepin-5-one] | > 3000 nM
CSc1ncc2c(n1)N(C)CCN(c1cccc(CCN(C)C(=O)OC(C)(C)C)c1)C2=O [Example 24, tert-butyl methyl(3-(9-methyl-2-(methylthio)-5-oxo-5,7,8,9-tetrahydro-6H-pyrimido[4,5-e][1,4]diazepin-6-yl)phenethyl) carbamate] | > 3000 nM
CCNc1ncc2c(n1)N(C)CCN(Cc1cccc(OC(CN(C)C(=O)OC(C)(C)C)c3ccccc3)c1)C2=O (centres unmarked) [Example 135, tert-butyl (2-(3-((2-(ethylamino)-9-methyl-5-oxo-5,7,8,9-tetrahydro-6H-pyrimido[4,5-e][1,4]diazepin-6-yl)methyl)phenoxy)-2-phenylethyl)(methyl) carbamate] | > 3000 nM
CSc1ncc2c(n1)N(C)CCN(c1cccc(Br)c1)C2=O [Example 35, 6-(3-bromophenyl)-9-methyl-2-(methylthio)-6,7,8,9-tetrahydro-5H-pyrimido[4,5-e][1,4]diazepin-5-one] | > 3000 nM
CNCC(OCc1ccccc1CN1CCN(C)c2nc(SC)ncc2C1=O)c1ccccc1 (centres unmarked) [Example 373, 9-methyl-6-(2-((2-(methylamino)-1-phenylethoxy)methyl)benzyl)-2-(methylthio)-6,7,8,9-tetrahydro-5H-pyrimido[4,5-e][1,4]diazepin-5-one] | > 3000 nM
CSc1ncc2c(n1)N(C)CCN(c1cccc(-c3nnc(C)o3)c1)C2=O [Example 29, 9-methyl-6-(3-(5-methyl-1,3,4-oxadiazol-2-yl)phenyl)-2-(methylthio)-6,7,8,9-tetrahydro-5H-pyrimido[4,5-e][1,4]diazepin-5-one] | > 3000 nM
CNCCC(OCc1cccc(N2CCN(C)c3cc(C)ncc3C2=O)c1)c1ccccc1 (centres unmarked) [Example 306, 1,8-dimethyl-4-(3-((3-(methylamino)-1-phenylpropoxy)methyl)phenyl)-1,2,3,4-tetrahydro-5H-pyrido[4,3-e] [1,4]diazepin-5-one] | 500 to 3000 nM

Other lines, results leading:

Ki | SMILES
> 3000 nM | CSc1ncc2c(n1)N(C)CCN(c1cccc(OC(CN(C)C(=O)OC(C)(C)C)c3ccccc3)c1)C2=O (centres unmarked) [Example 4, tert-butyl methyl(2-(3-(9-methyl-2-(methylthio)-5-oxo-5,7,8,9-tetrahydro-6H-pyrimido[4,5-e][1,4]diazepin-6-yl)phenoxy)-2-phenylethyl) carbamate]
> 3000 nM | CNCC(Oc1ccccc1CN1CCN(C)c2nc(SC)ncc2C1=O)c1ccccc1 (centres unmarked) [Example 371, 9-methyl-6-(2-(2-(methylamino)-1-phenylethoxy)benzyl)-2-(methylthio)-6,7,8,9-tetrahydro-5H-pyrimido[4,5-e][1,4]diazepin-5-one]
> 3000 nM | CSc1ncc2c(n1)N(C)CCN(c1cccc(CCO)c1)C2=O [Example 36, 6-(3-(2-hydroxyethyl)phenyl)-9-methyl-2-(methylthio)-6,7,8,9-tetrahydro-5H-pyrimido[4,5-e][1,4]diazepin-5-one]
> 3000 nM | CSc1ncc2c(n1)N(C)CCN(c1cccc(CO[C@H](CCN(C)C(=O)OC(C)(C)C)c3ccccc3)c1)C2=O [Example 10, tert-butyl (R)-methyl(3-((3-(9-methyl-2-(methylthio)-5-oxo-5,7,8,9-tetrahydro-6H-pyrimido[4,5-e][1,4]diazepin-6-yl)benzyl)oxy)-3-phenylpropyl) carbamate]
> 3000 nM | CCNc1ncc2c(n1)N(C)CCN(c1cccc(COC3(c4ccccc4)CCN(C(=O)OC(C)(C)C)CC3)c1)C2=O [Example 96, tert-butyl 4-((3-(2-(ethylamino)-9-methyl-5-oxo-5,7,8,9-tetrahydro-6H-pyrimido[4,5-e][1,4]diazepin-6-yl)benzyl)oxy)-4-phenylpiperidine-1-carboxylate]
500 to 3000 nM | CCNc1ncc2c(n1)N(C)CCN(c1cccc(OCCCN(C)CCc3ccccc3)c1)C2=O [Example 258, 2-(ethylamino)-9-methyl-6-(3-(3-(methyl(phenethyl)amino)propoxy)phenyl)-6,7,8,9-tetrahydro-5H-pyrimido[4,5-e][1,4]diazepin-5-one]
> 3000 nM | CCNc1ncc2c(n1)N(C)CCN(c1cccc(OC(CN(C)C(=O)OC(C)(C)C)c3ccccc3)c1)C2=O (centres unmarked) [Example 72, tert-butyl (2-(3-(2-(ethylamino)-9-methyl-5-oxo-5,7,8,9-tetrahydro-6H-pyrimido[4,5-e][1,4]diazepin-6-yl)phenoxy)-2-phenylethyl)(methyl) carbamate]
> 3000 nM | CCNc1ncc2c(n1)N(C)CCN(c1cccc(COC(CCN(C)C(=O)OC(C)(C)C)C(C)C)c1)C2=O (centres unmarked) [Example 126, tert-butyl (3-((3-(2-(ethylamino)-9-methyl-5-oxo-5,7,8,9-tetrahydro-6H-pyrimido[4,5-e][1,4]diazepin-6-yl)benzyl)oxy)-4-methylpentyl)(methyl) carbamate]
> 3000 nM | Cc1ncc2c(n1)N(C)CCN(c1cccc(CO[C@H](CCN(C)C(=O)OC(C)(C)C)c3ccccc3)c1)C2=O [Example 142, tert-Butyl (R)-(3-((3-(2,9-dimethyl-5-oxo-5,7,8,9-tetrahydro-6H-pyrimido[4,5-e][1,4]diazepin-6-yl)benzyl)oxy)-3-phenylpropyl)(methyl)carbamate]
> 3000 nM | CNCC(Oc1cccc(N2CCN(C)c3nc(SC)ncc3C2=O)c1)c1ccccc1 (centres unmarked) [Example 155, 9-methyl-6-(3-(2-(methylamino)-1-phenylethoxy)phenyl)-2-(methylthio)-6,7,8,9-tetrahydro-5H-pyrimido[4,5-e][1,4]diazepin-5-one]
